Laboratory results: patent publication US20090291071A1, “COMPOSITIONS AND METHODS FOR CONTROLLING LIPID METABOLISM” (priority 2007, published 2009)
Where two headings read alike, the source gives them in different places.

Key:
lipoprotein [1] = assay: Inhibition of lipoprotein oxidation (heart disease model); assay type: biochemical; set-up: % Inhibition Vit C Alone: concentration or dose not given beside the values
Text: Various combinations of antioxidants were studied to determine synergetic effects on lipoprotein oxidation. […] The antioxidants were used alone and together at micromolar and submolar concentrations to determine additive and […] effects on percentage inhibition of lipoprotein oxidation. A result when used together which is greater than the sum of this effects alone is considered to be a synergistic response. […] (Upper Panel) and Grow C (a natural Vitamin C extract) (Lower Panel).

lipoprotein [2] = assay: Glycation of lipoprotein by sugars; assay type: biochemical; details: for glycation of the lipoprotein by glucose and D-ribose: combined with glucose or D-ribose, and lipoprotein
Text: When dried beer solids, […], Vitamin E and Vitamin C were combined with glucose or D-ribose, and lipoprotein, glycation of the lipoprotein by glucose and D-ribose was inhibited. Similarly when RBC-Vitamin C or Vitamin E were combined with sorbitol and lipoprotein, glycation of the lipoprotein by sorbitol was inhibited.

LDL = details: humans, daily ingestion of 1,200 IU; cited from earlier work

For `Cc1c(C)c2c(c(C)c1O)CC[C@@](C)(CCC[C@H](C)CCC[C@H](C)CCCC(C)C)O2` [E, α-tocopherol], which “% Inhibition of E Alone” value (lipoprotein [1]; E 25.6 mg) is on record?
The value was 10.1%.

And the “glycation of the lipoprotein by glucose and D-ribose” value (lipoprotein [2])?
Its value is “inhibited”.

What about the “glycation of the lipoprotein by sorbitol” value (lipoprotein [2]; combined with sorbitol and lipoprotein) of the same molecule?
The value was “inhibited”.

What about the “increase of the (alpha)-tocopherol content of LDL” value (LDL) of the same molecule?
Its value is “up to 215%”.

And the “increase of the resistance of LDL to oxidation” value (LDL)?
The value was ≤ 175%.

Which “% Inhibition Vit C Alone” value (lipoprotein [1]; line of Weight Ratio Vit C:DBS 0.136:1) does the source give for `O=C1O[C@H]([C@@H](O)CO)C(O)=C1O` [Vit C, ascorbic acid] here?
The value was 0%.

And the “% Inhibition Vit C Alone” value (lipoprotein [1]; line of Weight Ratio Vit C:DBS 0.274:1)?
Its value is 1.2%.

And the “% Inhibition Vit C Alone” value (lipoprotein [1]; line of Weight Ratio Vit C:DBS 0.343:1)?
The value was 2.0%.

What about the “% Inhibition Vit C Alone” value (lipoprotein [1]; line of Weight Ratio Vit C:DBS 0.520:1) of the same molecule?
The value was 2.6%.

And the “% Inhibition Vit C Alone” value (lipoprotein [1]; line of Weight Ratio Vit C:DBS 0.680:1)?
The value was 3.0%.

And the “glycation of the lipoprotein by glucose and D-ribose” value (lipoprotein [2])?
The value was “inhibited”.

Which results are given for Catechin?
quantity of L-ascorbic acid remaining (0 h (time zero, reference)): 100%; quantity of L-ascorbic acid remaining (6 h, test substance 0.01 mg/ml): 14.6%; quantity of L-ascorbic acid remaining (6 h, test substance 0.1 mg/ml): 16.7%; quantity of L-ascorbic acid remaining (6 h, test substance 1.0 mg/ml): 17.7%; quantity of L-ascorbic acid remaining (20 h, test substance 0.01 mg/ml): 0.8%; quantity of L-ascorbic acid remaining (20 h, test substance 0.1 mg/ml): 0.8%; quantity of L-ascorbic acid remaining (20 h, test substance 1.0 mg/ml): 1.0%; quantity of L-ascorbic acid remaining (44 h, test substance 0.01 mg/ml): 1.4%; quantity of L-ascorbic acid remaining (44 h, test substance 0.1 mg/ml): 1.0%; quantity of L-ascorbic acid remaining (44 h, test substance 1.0 mg/ml): 1.2%; quantity of L-ascorbic acid remaining (72 h, test substance 0.01 mg/ml): 2.4%; quantity of L-ascorbic acid remaining (72 h, test substance 0.1 mg/ml): 2.0%; quantity of L-ascorbic acid remaining (72 h, test substance 1.0 mg/ml): 2.2%; inhibition of L-ascorbic acid degradation (tested up to 1.0 mg/ml): Neither epicatechin (EPC) nor catechin (CAT) showed any inhibitory effects
